According to patent US10844023B2 (Washington University, priority 2017, dated 2020):

What follows are compounds tested on Mfn2 null MEFs (assay: Mitochondrial elongation (aspect ratio) fusogenicity assay). Conditions: mitochondrial elongation relative to Cpd B (B01 = 100); Mfn2 null MEFs, compound overnight as printed (FIG. 48).
Format: cell-based, mouse
Set-up: % long compare to B: dose or concentration left out as unconfirmed
From the text: A cultured murine embryonic fibroblast assay system was used in which mitochondrial elongation (an increase in aspect ratio) reflects enhanced mitochondrial fusion.
A pharmacophore model was generated based on the interactions of HR1 and HR2 domains in the calculated structural model of Mfn2 in the closed conformation. The key features included hydrophobic interactions involving Mfn2 HR1: Val372 and Met376, and aromatic interactions and hydrogen bonding involving Mfn2 HR1 His380. […] A library comprising ˜14 million commercially available compounds was prepared in silico and evaluated using PHASE to fit these criteria. Top ranked hits were clustered, and filtered based on pharmacological properties using Qikprop. The top 55 (see TABLE 4) commercially available small molecules conforming to the model were selected for functional screening and purchased in 1 mg aliquots. […] Images were acquired by confocal microscopy. Each compound was scored for fusogenicity (see e.g., FIG. 24A) and % cell death (see e.g., FIG. 24B).
Cells were excited with 408 nm (Hoechst), […] (MitoTracker Green and Calcein AM, GFP), or 637 nm (TMRE, MitoTracker Orange, Ethidium homodimer-1, and AF594-Dextran) laser diodes. For mitochondrial elongation studies mitochondrial aspect ratio (long axis/short axis) was calculated using automated edge detection and Image J software. Mitochondrial depolarization was calculated as % of green mitochondria visualized on MitoTracker Green and TMRE merged images, expressed as green/(green+yellow mitochondria)×100.

Row | SMILES | % long compare to B [%]
1 | CCC(c1nnc(SCC(=O)Nc2sc3c(c2C(N)=O)CCC3)n1Cc1ccccc1)N(C)C (centres unmarked) [1-D1, 2-[2-({4-benzyl-5-[1-(dimethyl-amino)propyl]-4H-1,2,4-triazol-3-yl}sulfanyl)acetamido]-4H,5H,6H-cyclopenta[b]thio-phene-3-carboxamide] | 23
2 | COc1ccc(-n2cnnc2SCC(=O)Nc2sc3c(c2C(N)=O)CCC3)cc1 [1-D2, 2-(2-{[4-(4-methoxyphenyl)-4H-1,2,4-triazol-3-yl]sul-fanyl}acetamido)-4H,5H,6H-cyclopenta[b]thiophene-3-carboxamide] | 128
3 | O=C(CSc1nnc2n1CCCCC2)Nc1sc2c(c1C(=O)NCc1ccccc1)CCCC2 [1-D4, N-benzyl-2-(2-{5H,6H,7H,8H,9H-[1,2,4]triazolo[4,3-a]azepin-3-ylsulfanyl}acetamido)-4,5,6,7-tetrahydro-1-benzothiophene-3-carboxamide] | 105
4 | CC(Sc1nnc(-c2ccccc2)n1Cc1ccco1)C(=O)Nc1sc2c(c1C(N)=O)CCC2 (centres unmarked) [1-D7, 2-[2-({4-[(furan-2-yl)methyl]-5-phenyl-4H-1,2,4-triazol-3-yl}sulfanyl)propanamido]-4H,5H,6H-cyclopenta[b]thio-phene-3-carboxamide] | 92
5 | Cn1c(CC2CCS(=O)(=O)C2)nnc1SCC(=O)Nc1sc2c(c1C(N)=O)CCC2 (centres unmarked) [1-D9, 2-[2-({5-[(1,1-dioxo-1λ^6-thiolan-3-yl)methyl]-4-methyl-4H-1,2,4-triazol-3-yl}sulfanyl)acetamido]-4H,5H,6H-cyclopenta-[b]thiophene-3-carboxamide] | 5
6 | CCn1c(SCC(=O)Nc2sc3c(c2C(N)=O)CCC(C)C3)nnc1C1CC1 (centres unmarked) [1-D11, 2-{2-[(5-cyclopropyl-4-ethyl-4H-1,2,4-triazol-3-yl)sulfanyl]acetamido}-6-methyl-4,5,6,7-tetrahydro-1-benzothiophene-3-carboxamide] | 6
7 | CC(Sc1nnc2n1CCCCC2)C(=O)Nc1sc2c(c1C(N)=O)CCC2 (centres unmarked) [1-D12, 2-(2-{5H,6H,7H,8H,9H-[1,2,4]triazolo[4,3-a]azepin-3-ylsulfanyl}propanamido)-4H,5H,6H-cyclopenta[b]-thiophene-3-carboxamide] | 18
8 | C=CCn1c(SCC(=O)Nc2sc3c(c2C(N)=O)CCC3)nnc1C1CCCCC1 [1-E1, 2-(2-{[5-cyclohexyl-4-(prop-2-en-1-yl)-4H-1,2,4-triazol-3-yl}sulfanyl]acetamido)-4H,5H,6H-cyclopenta[b]thio-phene-3-carboxamide] | 38
9 | COc1ccccc1-n1cnnc1SCC(=O)Nc1sc2c(c1C(N)=O)CCC2 [1-E2, 2-(2-{[4-(2-methoxyphenyl)-4H-1,2,4-triazol-3-yl]sulfanyl}acet-amido)-4H,5H,6H-cyclopenta-[b]thiophene-3-carboxamide] | 17
10 | CC1CCc2c(sc(NC(=O)CSc3nnc(C4CC4)n3Cc3ccccc3)c2C(N)=O)C1 (centres unmarked) [1-E3, 2-{2-[(4-benzyl-5-cyclopropyl-4H-1,2,4-triazol-3-yl)sulfanyl]acetamido}-6-methyl-4,5,6,7-tetrahydro-1-benzothiophene-3-carboxamide] | 11
11 | COc1ccc(NC(=O)c2c(NC(=O)CSc3nnc(C4CC4)n3C)sc3c2CCCC3)cc1 [1-E4, 2-{2-[(5-cyclopropyl-4-methyl-4H-1,2,4-triazol-3-yl)sulfanyl]acetamido}-N-(4-methoxyphenyl)-4,5,6,7-tetrahydro-1-benzothiophene-3-carboxamide] | 17
12 | NC(=O)c1c(NC(=O)CSc2nnc(C3CC3)n2-c2ccccc2)sc2c1CCCC2 [1-E5, 2-{2-[(5-cyclopropyl-4-phenyl-4H-1,2,4-triazol-3-yl)sulfanyl]-acetamido}-4,5,6,7-tetrahydro-1-benzothiophene-3-carboxamide] | −3
13 | CCn1c(SCC(=O)Nc2sc3c(c2C(=O)NCc2ccccc2)CCCC3)nnc1C1CC1 [1-E6, N-benzyl-2-{2-[(5-cyclopropyl-4-ethyl-4H-1,2,4-triazol-3-yl)sulfanyl]acetamido}-4,5,6,7-tetrahydro-1-benzothiophene-3-carboxamide] | 10
14 | Cc1ccccc1-c1nnc(SCC(=O)Nc2sc3c(c2C(N)=O)CCC3)n1C [1-E7, 2-(2-{[4-methyl-5-(2-methyl-phenyl)-4H-1,2,4-triazol-3-yl]sulfanyl}acetamido)-4H,5H,6H-cyclopenta[b]-thiophene-3-carboxamide] | 9
15 | CC(Sc1nccn1-c1cccc(F)c1)C(=O)Nc1sc2c(c1C(N)=O)CCC2 (centres unmarked) [1-E8, 2-(2-{[1-(3-fluorophenyl)-1H-imidazol-2-yl]sulfanyl}pro-panamido)-4H,5H,6H-cyclo-penta[b]thiophene-3-carboxamide] | 5
16 | CC(Sc1nnc(CC2CCS(=O)(=O)C2)n1C)C(=O)Nc1sc2c(c1C(N)=O)CCC2 (centres unmarked) [1-E9, 2-[2-({5-[(1,1-dioxo-1λ^6-thiolan-3-yl)methyl]-4-methyl-4H-1,2,4-triazol-3-yl}sulfanyl)propanamido]-4H,5H,6H-cyclopenta[b]thio-phene-3-carboxamide] | 0
17 | Cc1cccc(-n2ccnc2SC(C)C(=O)Nc2sc3c(c2C(N)=O)CCC3)c1C (centres unmarked) [1-E10, 2-(2-{[1-(2,3-dimethylphenyl)-1H-imidazol-2-yl]sulfanyl}pro-panamido)-4H,5H,6H-cyclo-penta[b]thiophene-3-carboxamide] | 21
18 | NC(=O)c1c(NC(=O)CSc2nnc(-c3ccco3)n2-c2ccccc2)sc2c1CCC2 [1-F1, 2-(2-{[5-(furan-2-yl)-4-phenyl-4H-1,2,4-triazol-3-yl]sulfanyl}-acetamido)-4H,5H,6H-cyclo-penta[b]thiophene-3-carboxamide] | 21
19 | C=CCn1c(SCC(=O)Nc2sc3c(c2C(N)=O)CCC3)nnc1-c1ccccc1 [1-F2, 2-(2-{[5-phenyl-4-(prop-2-en-1-yl)-4H-1,2,4-triazol-3-yl]sulfanyl}acetamido)-4H,5H,6H-cyclopenta[b]thio-phene-3-carboxamide] | −10
20 | Cc1ccc(-n2c(C)nnc2SCC(=O)Nc2sc3c(c2C(N)=O)CCC3)cc1 [1-F3, 2-(2-{[5-methyl-4-(4-methylphenyl)-4H-1,2,4-triazol-3-yl]sulfanyl}acetamido)-4H,5H,6H-cyclopenta[b]-thiophene-3-carboxamide] | 13
21 | COc1ccccc1-n1c(C)nnc1SCC(=O)Nc1sc2c(c1C(N)=O)CCCC2 [1-F4, 2-(2-{[4-(2-methoxyphenyl)-5-methyl-4H-1,2,4-triazol-3-yl]sulfanyl}acetamido)-4,5,6,7-tetrahydro-1-benzothiophene-3-carboxamide] | 22
22 | CCn1c(SCC(=O)Nc2sc3c(c2C(N)=O)CCCC3)nnc1C1CC1 [1-F5, 2-{2-[(5-cyclopropyl-4-ethyl-4H-1,2,4-triazol-3-yl)sulfanyl]acet-amido}-4,5,6,7-tetrahydro-1-benzothiophene-3-carboxamide] | −7
23 | CC(c1nnc(SCC(=O)Nc2sc3c(c2C(N)=O)CCC3)n1-c1ccc(F)cc1)N(C)C (centres unmarked) [1-F6, 2-[2-({5-[1-(dimethylamino)ethyl]-4-(4-fluorophenyl)-4H-1,2,4-triazol-3-yl}sulfanyl)acetamido]-4H,5H,6H-cyclopenta[b]thio-phene-3-carboxamide] | 30
24 | CC(Sc1nnc(-c2cccs2)n1-c1ccccc1)C(=O)Nc1sc2c(c1C(N)=O)CCC2 (centres unmarked) [1-F7, 2-(2-{[4-phenyl-5-(thiophen-2-yl)-4H-1,2,4-lriazol-3-yl]sul-fanyl}propanamido)-4H,5H,6H-cyclopenta[b]thiophene-3-carboxamide] | −26
25 | CC(Sc1nnc(-c2c[nH]c3ccccc23)n1C1CC1)C(=O)Nc1sc2c(c1C(N)=O)CCC2 (centres unmarked) [1-F8, 2-(2-{[4-cyclopropyl-5-(1H-indol-3-yl)-4H-1,2,4-triazol-3-yl]sulfanyl}propanamido)-4H,5H,6H-cyclopenta[b]-thiophene-3-carboxamide] | 2
26 | C=CCn1c(SCC(=O)Nc2sc3c(c2C(N)=O)CCCC3)nnc1C1CC1 [1-F9, 2-(2-{[5-cyclopropyl-4-(prop-2-en-1-yl)-4H-1,2,4-triazol-3-yl]sulfanyl}acet-amido)-4,5,6,7-tetrahydro-1-benzothiophene-3-carboxamide] | 202
27 | CC(Sc1nnc(-c2cccnc2)n1Cc1ccco1)C(=O)Nc1sc2c(c1C(N)=O)CCC2 (centres unmarked) [1-F10, 2-[2-({4-[(furan-2-yl)methyl]-5-(pyridin-3-yl)-4H-1,2,4-triazol-3-yl}sulfanyl)propanamido]-4H,5H,6H-cyclopenta[b]-thiophene-3-carboxamide] | 29
28 | NC(=O)c1c(NC(=O)CSc2nnc(-c3cccnc3)n2-c2ccccc2)sc2c1CCC2 [1-F11, 2-(2-{[4-phenyl-5-(pyridin-3-yl)-4H-1,2,4-triazol-3-yl]sulfanyl]acet-amido)-4H,5H,6H-cyclopenta[b]-thiophene-3-carboxamide] | 13
29 | Cc1ccccc1-n1c(SCC(=O)Nc2sc3c(c2C(N)=O)CCC3)nnc1-c1cccnc1 [1-G1, 2-(2-{[4-(2-methylphenyl)-5-(pyridin-3-yl)-4H-1,2,4-triazol-3-yl]sulfanyl}acet-amido)-4H,5H,6H-cyclopenta[b]thiophene-3-carboxamide] | 141
